Test results published in patent US20240245711A1, “A 19-NOR C3,3-DISUBSTITUTED C21-N-PYRAZOLYL STEROID FOR THE TREATMENT OF MAJOR DEPRESSIVE DISORDER” (Sage Therapeutics, Inc., priority 2021, published 2024).
Where “and” joins values, the source holds several entries; their conditions need not be identical. Equal values may be shown once.

System: adult subjects with Major Depressive Disorder
Assay: Phase 3 open-label 1-year study: need for re-treatment (number of and time to re-treatments)
Type: in vivo, human
Conditions: for Subjects with No re-treatment (Cycle 1), n (%) / Subjects with Only 1 re-treatment (Cycle 2), n (%) / Subjects with Only 2 re-treatment (Cycle 3), n (%) / Subjects with Only 3 re-treatment (Cycle 4), n (%) / Subjects with Only 4 re-treatment (Cycle 5), n (%): FAS; for Time to re-treatment, Mean (SD): Low Dose Cohort (FAS)
From the text: Secondary Objective: To assess the need for re-treatment with Compound (1) following initial treatment in adults with MDD currently experiencing an MDE over a 1-year period, and to assess the response of initial treatment and re-treatment(s) with Compound (1) following an initial 2-week treatment period in adults with MDD currently experiencing an MDE over a 1-year period.
Secondary Endpoints: The need for re-treatment with Compound (1) as assessed by: time to first re-treatment (Kaplan-Meier curves), number of subjects achieving the requirements for re-treatment, number of re-treatment cycles for each subject, the response of initial treatment and/or re-treatment as assessed by: change from baseline in the 17-item Hamilton Rating Scale for Depression (HAM-D) total score at the end of each 14-day treatment (initial and/or re-treatment) period, HAM-D response at the end of each 14-day treatment (initial and/or re-treatment) period, defined as a ≥50% reduction in HAM-D score from baseline, HAM-D remission at the end of each 14-day treatment (initial and/or re-treatment) period, defined as HAM-D total score≤7, Clinical Global Impression-Improvement (CGI-I) response, defined as “much improved” or “very much improved”, at the end of each 14-day treatment (initial and/or re-treatment) period, change from baseline in Clinical Global Impression-Severity (CGI-S) score at the end of each 14-day treatment (initial and/or re-treatment) period.
Subjects who continued in the Observation Period were monitored remotely via PHQ-9 assessment every two weeks. If PHQ-9 score was >=10 at any assessment, PHQ-9 assessment was switch to every week until the score came down below 10 or the subject was dosed with Compound (1) in a subsequent cycle, whichever was earlier. A subject was to come back to the site for HAM-D assessment within a week of PHQ-9 score >=10; if the HAM-D total score >=20 and at least 56 days had elapsed since the last dose of Compound (1), another dosing cycle of Compound (1) were to start. If any of these criteria were not met, the subject couldn't be treated with Compound (1) at that time. Without the trigger of PHQ-9>=10 the subject was to have a clinic visit every 8 weeks. A subject could have at most 5 cycles of treatment within a year. FIG. 2 is a depiction of the eligibility criteria of the study.
The cohorts pertaining to the different doses that the subjects received were defined as following: • 50 mg cohort: This cohort includes subjects who have initiated treatment with 50 mg and received re-treatment with 50 mg only. • 30 mg cohort: This cohort includes subjects who have initiated treatment with 30 mg regardless of the dose they have received in re-treatments. • Low dose cohort: This cohort includes subjects who have initiated treatment with 30 mg and received re-treatment with 30 mg only. • Dose switch cohort: This cohort includes subjects who have received initial treatment with 30 mg and at least one subsequent re-treatment with 50 mg. • Study Period X: starts on the date of the first dose of Compound (1) in cycle X and goes up to one day prior to the first dose of the next cycle. In some embodiments, X is any number from 1 to 5. • Treatment Period X: starts on the date of the first dose of Compound (1) in cycle X and goes up to one day after the last dose in cycle X. In some embodiments, X is any number from 1 to 5. • Treatment Cycle X: starts on the date of the first dose of Compound (1) in cycle X and goes up to 14 days after the last dose in cycle X. The treatment cycles may be denoted as C1-C5. • Observation period X: starts the day after Treatment Cycle X ends and goes up to one day prior to the start of next treatment cycle. In some embodiments, X is any number from 1 to 5.
Analysis Sets: The safety set was defined as all subjects who were administered study drug. The period-specific safety set includes subjects in the safety set who were administered study drug in the corresponding treatment cycle. […]

[1] = ATD Use at Baseline = No, 30 mg Cohort (N = 280)
[2] = ATD Use at Baseline = No, 50 mg Cohort (N = 86)
[3] = ATD Use at Baseline = Yes, 30 mg Cohort (N = 209)
[4] = ATD Use at Baseline = Yes, 50 mg Cohort (N = 60)

C[C@@]1(O)CC[C@H]2[C@H](CC[C@@H]3[C@@H]2CC[C@]2(C)[C@@H](C(=O)Cn4cc(C#N)cn4)CC[C@@H]32)C1 [Compound (1), 1-(2-((3R,5R,8R,9R,10S,13S,14S,17S)-3-hydroxy-3,13-dimethylhexadecahydro-1H-cyclopenta[a]phenanthren-17-yl)-2-oxoethyl)-1H-pyrazole-4-carbonitrile]
Time to re-treatment since last dose in previous cycle, Median (Cycle 5, Dose Switch (FAS)): 58 days | Time to re-treatment since last dose in previous cycle, Min - Max (Cycle 5, Dose Switch (FAS)): 57 to 79 days | n/N: FAS subjects eligible and dosed in Cycle X / eligible for dosing in Cycle X (Cycle 5, Low Dose): 20/34 | Time to re-treatment since last dose in previous cycle, Mean (SD) (Cycle 5, Low Dose (FAS)): 63.2 (7.42) Days | Time to re-treatment since last dose in previous cycle, Median (Cycle 5, Low Dose (FAS)): 60.5 days | Time to re-treatment since last dose in previous cycle, Min - Max (Cycle 5, Low Dose (FAS)): 58 to 86 days | Dosed in at least 1 re-treatment cycle, % of eligible (Dose Switch (80 eligible)): 80 (100%) | Qualified to be retreated in at least 1 more cycle (HAM-D total score >= 20), % of eligible (Dose Switch (80 eligible)): 80 (100%) | Subjects with No re-treatment (Cycle 1), n (%) of FAS (Dose Switch (N = 80)): 0% | Subjects with Only 1 re-treatment (Cycle 2), n (%) of FAS (Dose Switch (N = 80)): 9 (11.3%) | Subjects with Only 2 re-treatment (Cycle 3), n (%) of FAS (Dose Switch (N = 80)): 18 (22.5%) | Subjects with Only 3 re-treatment (Cycle 4), n (%) of FAS (Dose Switch (N = 80)): 30 (37.5%) | Subjects with Only 4 re-treatment (Cycle 5), n (%) of FAS (Dose Switch (N = 80)): 23 (28.8%) | Average (range) number of re-treatments per subject over 1-year follow-up (Dose Switch Cohort): 2.8 (1-4) | FAS Subjects Dosed in C2, n (%) of FAS (Dose Switch Cohort): 80 (100%) | FAS Subjects dosed in C3, n (%) of FAS (Dose Switch Cohort): 71 (88.8%) | FAS Subjects dosed in C4, n (%) of FAS (Dose Switch Cohort): 53 (66.3%) | FAS Subjects dosed in C5, n (%) of FAS (Dose Switch Cohort): 23 (28.8%) | Subjects with No re-treatment (Cycle 1), n (%) [1]: 114 (40.7%) | Subjects with Only 1 re-treatment (Cycle 2), n (%) [1]: 80 (28.6%) | Subjects with Only 2 re-treatment (Cycle 3), n (%) [1]: 31 (11.1%) | Subjects with Only 3 re-treatment (Cycle 4), n (%) [1]: 33 (11.8%) | Subjects with Only 4 re-treatment (Cycle 5), n (%) [1]: 22 (7.9%) | Subjects with No re-treatment (Cycle 1), n (%) [2]: 72 (83.7%) | Subjects with Only 1 re-treatment (Cycle 2), n (%) [2]: 13 (15.1%) | Subjects with Only 2 re-treatment (Cycle 3), n (%) [2]: 1 (1.2%) | Subjects with Only 3 re-treatment (Cycle 4), n (%) [2]: 0% | Subjects with Only 4 re-treatment (Cycle 5), n (%) [2]: 0% | Subjects with No re-treatment (Cycle 1), n (%) [3]: 96 (45.9%) | Subjects with Only 1 re-treatment (Cycle 2), n (%) [3]: 45 (21.5%) | Subjects with Only 2 re-treatment (Cycle 3), n (%) [3]: 27 (12.9%) | Subjects with Only 3 re-treatment (Cycle 4), n (%) [3]: 20 (9.6%) | Subjects with Only 4 re-treatment (Cycle 5), n (%) [3]: 21 (10.0%) | Subjects with No re-treatment (Cycle 1), n (%) [4]: 48 (80.0%) | Subjects with Only 1 re-treatment (Cycle 2), n (%) [4]: 12 (20.0%) | Subjects with Only 2 re-treatment (Cycle 3), n (%) [4]: 0% | Dosed in at least 1 re-treatment cycle, % of eligible (Low Dose (199 of 392 eligible)): 199 0.8%) and 199 (0.8%) | Qualified to be retreated in at least 1 more cycle (HAM-D total score >= 20), % of eligible (Low Dose (392 eligible)): 225 (57.4%) | Subjects with No re-treatment (Cycle 1), n (%) of FAS (Low Dose (N = 409)): 210 (51.3%) | Subjects with Only 1 re-treatment (Cycle 2), n (%) of FAS (Low Dose (N = 409)): 116 (28.4%) | Subjects with Only 2 re-treatment (Cycle 3), n (%) of FAS (Low Dose (N = 409)): 40 (9.8%) and 40 (9.7%) | Subjects with Only 3 re-treatment (Cycle 4), n (%) of FAS (Low Dose (N = 409)): 23 (5.6%) | Subjects with Only 4 re-treatment (Cycle 5), n (%) of FAS (Low Dose (N = 409)): 20 (4.9%) | Average (range) number of re-treatments per subject over 1-year follow-up (Low Dose Cohort): 0.8 (0-4) and 0.8 | Average total number of treatments per subject (Low Dose Cohort): 1.8 | Effect of antidepressant use on length of time between re-treatments (Low Dose Cohort): did not make much difference | FAS Subjects Dosed in C2, n (%) of FAS (Low Dose Cohort): 199 (48.7%) | FAS Subjects dosed in C3, n (%) of FAS (Low Dose Cohort): 83 (20.3%) | FAS Subjects dosed in C4, n (%) of FAS (Low Dose Cohort): 43 (10.5%) | FAS Subjects dosed in C5, n (%) of FAS (Low Dose Cohort): 20 (4.9%) | Time to re-treatment, Mean (SD) (dosed in Cycle 2, ATD use at baseline of previous cycle No): 97.2 (49.59) Days and 97.2 Days | Time to re-treatment, Mean (SD) (dosed in Cycle 2, ATD use at baseline of previous cycle Yes): 103.3 (56.26) Days and 103.3 Days | Time to re-treatment, Mean (SD) (dosed in Cycle 3, ATD use at baseline of previous cycle No): 88.4 (37.52) Days and 88.4 Days | Time to re-treatment, Mean (SD) (dosed in Cycle 3, ATD use at baseline of previous cycle Yes): 85.9 (32.14) Days and 85.9 Days | Time to re-treatment, Mean (SD) (dosed in Cycle 4, ATD use at baseline of previous cycle No): 73.0 (18.40) Days and 73.0 Days | Time to re-treatment, Mean (SD) (dosed in Cycle 4, ATD use at baseline of previous cycle Yes): 71.1 (17.21) Days and 71.1 Days | Time to re-treatment, Mean (SD) (dosed in Cycle 5, ATD use at baseline of previous cycle No): 61.9 (3.28) Days and 61.9 Days | Time to re-treatment, Mean (SD) (dosed in Cycle 5, ATD use at baseline of previous cycle Yes): 64.5 (10.09) Days and 64.5 Days | Re-treatment rates with and without pre-existing antidepressant therapy (in vivo): similar | Mean (range) number of total treatment courses (overall study population): 1.8 (1-5) | Patients not requiring additional treatment courses during their time in the study (overall study population): 43.7%
